For test [1], the system named is GES-1 human gastric mucosal epithelial cells. As to the kind of experiment: cells. Type of test: cell-based. The settings on record: GES1, 24 h, read-out: Cell viability (%). Here is the method: Long-term alcoholics were prone to gastric mucosal damage due to long-term alcohol damage.
A blank control group (without ethanol) and a model group (with ethanol but without the salt or glycyrrhetinic acid in the examples) were set.
The cells were cultured in a complete RPMI 1640 medium for 6 h.
Then, the cell viability was detected. […] Table 2 Cell viability of ethanol-induced damage models of gastric mucosal epithelial cells

Test [2] relates to SH-SY5Y human neuroblastoma cells. As to the kind of experiment: Parkinson's disease cell model (6-OHDA), cell viability. The settings on record: 24 h, read-out: Cell viability (%).
Protocol: A blank control group (without 6-OHDA) and a model group (with 6-OHDA but without the salt of this example or selegiline) were set.
SH-SY5Y human neuroblastoma cells were uniformly inoculated into a 96-well plate, about 5,000 cells per well. The cells were cultured in a complete DMEM/F12 medium for 6 h. After the cells were completely adhered to the wall, all the media were removed, 100 µL of serum-free DMEM/F12 medium, i.e., a cell culture solution, containing 150 µmol/L of 6-OHDA (a serum-free DMEM/F12 medium without 6-OHDA was added to the blank group), was added to each well, and the cells were incubated and cultured for 24 h.
Then, all the media were removed again, 100 µL of each of serum-free DMEM/ F12 media, i.e., cell culture solutions, containing 0.025 g/mL, 0.05 g/mL, 0.1 g/mL, 0.2 g/mL, 0.4 g/mL and 0.8 g/mL of compound of experimental or control groups (a serum-free DMEM/ F12 medium without compound of experimental or control groups was added to the blank group and a model group) were added to each well according to the groups, and the cells were cultured in a cell culture solution for 24 h.

SMILES strings stand for the structures.

With `CC1(C)[C@@H](O)CC[C@]2(C)[C@H]3C(=O)C=C4[C@@H]5C[C@@](C)(C(=O)O)CC[C@]5(C)CC[C@@]4(C)[C@]3(C)CC[C@@H]12` [Glycyrrhetinic acid, glycyrrhetinic acid], in test [1], the viability at 25 µg/mL stood at 59.4%, the viability at 50 µg/mL came out at 61.8%, the viability at 100 µg/mL worked out at 64.3% and the viability at 200 µg/mL amounted to 65.2%. For the same compound, in test [1], the viability at 400 µg/mL was determined as 68.9% and the viability at 800 µg/mL came to 71.9%.
Regarding `C#CCN(C)[C@H](C)Cc1ccccc1` [Selegiline, selegiline], in test [2], the viability at 25 µg/mL was found to be 33.4%, the viability at 50 µg/mL was found to be 37.5%, the viability at 100 µg/mL amounted to 43.3% and the viability at 200 µg/mL worked out at 49.9%. Besides, in test [2], the viability at 400 µg/mL turned out to be 58.5% and the viability at 800 µg/mL was 69.8%.

Values taken from patent publication EP4624454A1, “NON-COVALENT DIMER CATION, AND SALT THEREOF, PREPARATION METHOD THEREFOR AND USE THEREOF” (Suzhou Protonation Chain Biotechnology Co., Ltd, priority 2022, dated 2024).
